Measured values from patent US5871779A, “Treatment of arthropathies with vanadate compounds or analogues thereof” (Mount Sinai Hospital Corporation, priority 1996, dated 1999).
“And” between values parts separate entries of the source, which are not always exact repeats. Identical values can stand only once.

Assays:
[1] = tolerability of BMOV and NAC in arthritic rats; assay type: in vivo
Description: Rats with definite arthritis on Day 10 post immunization were randomized into two groups. Control rats (n=8) received only NAC at a dose of 100 mg/kg/day s.c. NAC was prepared as a 3% aqueous solution. The experimental group (n=9) received NAC at 100 mg/kg/day s.c., as well as BMOV subcutaneously at 10 mg/kg/day. BMOV was solubilized in a 5% dextrose solution at 50° C.

[2] = test system: MDAY-D2 tumor; assay: BMOV loaded microspheres on tumor growth (Example 19); assay type: in vivo, mice; settings: BMOV solution
Description: The effect of slow releasing microspheres loaded with 20% BNOV on tumor growth in mice was investigated as follows.
On day 6 the mice were divided into 6 groups as follows: group 1, empty control; group 3, tumor control; group 3, […]; group 4, injected IP with 20 mg palla beads containing 5 mg of BMOV; group 5, injected IP with 10 mg of BMOV beads on day 6 and day 9 respectively and; group 6, injected intramuscularly with 10 mg of BMOV beads on day 6 and day 9. On day 16, the mice were sacrificed and tumors were dissected.

[3] = test system: fos; assay: fos / c-fos mRNA expression in chondrocytes (Northern blot); assay type: cell-based, bovine; settings: 100 μM
Summary of the method: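 Bovine articular chondrocytes incubated 1 h with IL-1, PMA or AA (3 μM), or treated with IL 1 ± DPI, or with H2O2 for 30, 60 and 90 min. Total RNA run on formaldehyde agarose gels and probed by Northern blot with c-fos, c-jun or collagenase cDNA.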

[4] = test system: MCF7 (ADR); assay: MTT cytotoxicity assay, MCF7 (ADR); assay type: cell-based, human; settings: MCF7 (ADR), 72 hours; read-out: IC50 Value
Description: The relative cytotoxicity of various compounds on tumor cell lines was investigated as follows. Cytotoxicity was measured by the MTT microculture tetrazolium colorimetric assay for all cell lines. The relative cytotoxicity of Na3 VO4 and VOSO4 was investigated using the following tumor cell lines: P388(WT) murine leukemia, P388 (ADR) murine leukemia, Lewis murine lung, MCF7 (WT) human breast, […] human lung, K562 human erythroleukemia, A431 human epidermal, LS180 human colon and SK-OV-3 human ovarian. The relative cytotoxicity of doxorubicin, Na3 VO4 and VOSO4 was investigated using the following tumor cell lines: P388(WT) murine leukemia, P388 (ADR) murine leukemia, MCF7(WT) human breast and MCF7 (ADR) human breast. The relative cytotoxicity of BMOV, BEOV and naglivan was investigated using the following tumor cell lines: P388(WT) murine leukemia, P388 (ADR) murine leukemia, Lewis murine lung, H460 human lung, K562 human erythroleukemia, and SK-OV-3 human ovarian.
The cells were plated (number of cells/well was different from cell line to cell depending on the dividing rate) in a 96-well microculture plate 24 hours prior to the delivery of the vanadium compounds. Serial concentrations of solutions of the test compounds (0.05-100 μM) were delivered to the corresponding wells. A blank column (without cells) and a control column (with cells without vanadium) were left. The cells were incubated for 72 hours continuously. An MTT solution was added to each well after this incubation period and the cells were incubated for 4 more hours for the completion of the dyeing process. The medium was removed find DMSO was added to each well. The absorbance of each well was read with a Titertek Multiskan (310C) spectrophotometer at 570 nm. The percentage of the absorbance of each vanadium concentration relative to the control calculated and the value of the 50% growth inhibition concentration (IC50) was obtained from the % control versus concentration plot. Each assay was repeated three times and the reported IC50 values were the mean of these three runs.

[5] = test system: PLA2; assay: release of 3H-arachidonic acid from chondrocytes (PLA2 activity); assay type: cell-based, bovine; settings: 100 μM
Description: The effect of orthovanadate and N-acetylcysteine on fos, jun and collagenase expression were examined. Bovine articular chondrocytes were isolated and plated as previously described (Kandel R. A. et al. Biochim. Biophys. Acta. 1053, 130-134, 1990). In order to determine the effect of orthovanadate on IL 1 and PMA (phorbol ester) induced responses, chondrocytes were incubated with orthovanadate (100 μM) for 2 hours before stimulation with IL 1 (10 ng/ml) or PMA ([…]). Collagenase production was determined by incubating chondrocytes for 24 hours with IL 1 or PMA and the cell conditioned medium was assayed for collagenase activity using an ELISA procedure as described previously (Kandel et al. supra). PLA2 activity was measured by incorporating ^3 H-arachidonic acid (^3 H-AA) into the cells and then incubating the cells with medium containing 1 mg/ml BSA, either alone or in the presence of IL 1 or PMA, for 10 min. as previously described (Conquer, J. A. […], Biochim. Biophys. Acta. 1134, 1-6). The amount of ^3 H-AA liberated into the supernatant was determined. To measure PGE2 production, chondrocytes were incubated for 6 hours in Ham's F12 medium, either alone or with IL 1 or PMA. The supernatant was analyzed by RIA using an antibody specific for PGE2 (Dr. S. A. Jones, Mount Sinai Hospital, Toronto, Canada). […]

Structure (SMILES)	diarrhea ([1]; BMOV 10 mg/kg/day)	diarrhea ([1]; BMOV 15 mg/kg/day from Day 11)	Tumour weight, Average [2]	Tumour weight ([2]; individual mice)	inhibition of IL 1, PMA and AA induced c-fos expression [3]	IC50 [4]	inhibition of IL 1 or PMA induced release of 3H-AA [5]
Cc1occc(=O)c1[O-].Cc1occc(=O)c1[O-].[O]=[V+2] [BMOV, bis(methylmaltolato) oxovanadium (IV)]	not observed	minor diarrhea	0.15	0.4 and 0.12 and 0.07 and 0.04	–	–	–
[Na+].[Na+].[Na+].[O]=[V]([O-])([O-])[O-] [orthovanadate, sodium orthovanadate]	–	–	–	–	completely inhibited	30.7 µM	did not inhibit
